{
  "source": "patent US10537558B2",
  "about": "(Bantam Pharmaceutical, LLC, priority 2015, dated 2020)",
  "data": [
    {"tested_on": "BJAB cells", "assay": "BJAB cell proliferation (Cell Titer Glo)", "assay_type": "cell-based", "conditions": "Homo sapiens, read-out: EC50", "method": "Cells were seeded in white Corning Costar 96-well assay plates at 2500 cells/well in 50 μL of medium. Serial dilutions of test compounds were made in cell culture medium/FBS+0.2% DMSO, and transferred to assay plates in a volume of 50 μL (DMSO at 0.1% final). Plates were maintained at 37° C. for approximately 72 hours. The effect of compounds on cell proliferation was evaluated using the Cell Titer Glo reagent (Promega), according to the manufacturer's instructions. Briefly, 100 μL of reagent was added per well, and after a 10 minute incubation luminescence values were determined on a plate reader (Tecan F200PRO). The percent of luminescence signal relative to untreated controls was calculated for each compound concentration, and EC50 values were determined from dose response data by non-linear regression analysis using Prism (GraphPad). The mTor inhibitor Torin1 (Liu, et al. (2010) J. Med. Chem. 53, 7146.) was used as a control. The data are summarized in the compound table provided above.", "units": {"EC50": "µM"}, "values": [
      {"smiles": "COC(=O)c1c(Cc2ccccc2[N+](=O)[O-])c(C)nn1-c1nc(-c2ccc(Cl)c(Cl)c2)cs1", "note": "[Compound 1, methyl 1-(4-(3,4-dichlorophenyl)thiazol-2-yl)-3-methyl-4-(2-nitrobenzyl)-1H-pyrazole-5-carboxylate]", "EC50": "> 50"},
      {"smiles": "Cc1nn(-c2nc(-c3ccc(Cl)c(Cl)c3)cs2)c(C(=O)O)c1Cc1ccccc1[N+](=O)[O-]", "note": "[Compound 2, 1-(4-(3,4-dichlorophenyl)thiazol-2-yl)-3-methyl-4-(2-nitrobenzyl)-1H-pyrazole-5-carboxylic acid]", "EC50": "> 50"},
      {"smiles": "CCSc1sc(-n2nc(C)c(Cc3ccccc3[N+](=O)[O-])c2C(=O)OC)nc1-c1ccc(Cl)c(Cl)c1", "note": "[Compound 3, methyl 1-(4-(3,4-dichlorophenyl)-5-(ethylthio)thiazol-2-yl)-3-methyl-4-(2-nitrobenzyl)-1H-pyrazole-5-carboxylate]", "EC50": "> 80"},
      {"smiles": "CCSc1sc(-n2nc(C)c(Cc3ccccc3[N+](=O)[O-])c2C(=O)O)nc1-c1ccc(Cl)c(Cl)c1", "note": "[Compound 4, 1-(4-(3,4-dichlorophenyl)-5-(ethylthio)thiazol-2-yl)-3-methyl-4-(2-nitrobenzyl)-1H-pyrazole-5-carboxylic Acid]", "EC50": "50 to 100"},
      {"smiles": "COC(=O)c1c(Cc2ccccc2[N+](=O)[O-])c(C)nn1-c1nc(-c2ccc(Cl)c(Cl)c2)c(SC(C)C)s1", "note": "[Compound 5, methyl 1-(4-(3,4-dichlorophenyl)-5-(isopropylthio)thiazol-2-yl)-3-methyl-4-(2-nitrobenzyl)-1H-pyrazole-5-carboxylate]", "EC50": "> 80"},
      {"smiles": "Cc1nn(-c2nc(-c3ccc(Cl)c(Cl)c3)c(SC(C)C)s2)c(C(=O)O)c1Cc1ccccc1[N+](=O)[O-]", "note": "[Compound 6, 1-(4-(3,4-dichlorophenyl)-5-(isopropylthio)thiazol-2-yl)-3-methyl-4-(2-nitrobenzyl)-1H-pyrazole-5-carboxylic acid]", "EC50": "25 to 50"},
      {"smiles": "COC(=O)c1c(Cc2ccccc2NS(C)(=O)=O)c(C)nn1-c1nc(-c2ccc(Cl)c(Cl)c2)cs1", "note": "[Compound 7, methyl 1-(4-(3,4-dichlorophenyl)thiazol-2-yl)-3-methyl-4-(2-(methylsulfonamido)benzyl)-1H-pyrazole-5-carboxylate]", "EC50": "> 80"},
      {"smiles": "Cc1nn(-c2nc(-c3ccc(Cl)c(Cl)c3)cs2)c(C(=O)O)c1Cc1ccccc1NS(C)(=O)=O", "note": "[Compound 8, 1-(4-(3,4-dichlorophenyl)thiazol-2-yl)-3-methyl-4-(2-(methylsulfonamido)benzyl)-1H-pyrazole-5-carboxylic acid]", "EC50": "> 80"},
      {"smiles": "CCCSc1sc(-n2nc(C)c(Cc3ccccc3[N+](=O)[O-])c2C(=O)OC)nc1-c1ccc(Cl)c(Cl)c1", "note": "[Compound 9, methyl 1-(4-(3,4-dichlorophenyl)-5-(propylthio)thiazol-2-yl)-3-methyl-4-(2-nitrobenzyl)-1H-pyrazole-5-carboxylate]", "EC50": "> 80"},
      {"smiles": "CCCSc1sc(-n2nc(C)c(Cc3ccccc3[N+](=O)[O-])c2C(=O)O)nc1-c1ccc(Cl)c(Cl)c1", "note": "[Compound 10, 1-(4-(3,4-dichlorophenyl)-5-(propylthio)thiazol-2-yl)-3-methyl-4-(2-nitrobenzyl)-1H-pyrazole-5-carboxylic acid]", "EC50": "25 to 50"},
      {"smiles": "CCCCSc1sc(-n2nc(C)c(Cc3ccccc3[N+](=O)[O-])c2C(=O)OC)nc1-c1ccc(Cl)c(Cl)c1", "note": "[Compound 11, methyl 1-(5-(butylthio)-4-(3,4-dichlorophenyl)thiazol-2-yl)-3-methyl-4-(2-nitrobenzyl)-1H-pyrazole-5-carboxylate]", "EC50": "> 80"},
      {"smiles": "CCCCSc1sc(-n2nc(C)c(Cc3ccccc3[N+](=O)[O-])c2C(=O)O)nc1-c1ccc(Cl)c(Cl)c1", "note": "[Compound 12, 1-(5-(butylthio)-4-(3,4-dichlorophenyl)thiazol-2-yl)-3-methyl-4-(2-nitrobenzyl)-1H-pyrazole-5-carboxylic Acid]", "EC50": "> 80"},
      {"smiles": "CCCSc1sc(-n2nc(C)c(Cc3ccccc3NS(C)(=O)=O)c2C(=O)O)nc1-c1ccc(Cl)c(Cl)c1", "note": "[Compound 13, 1-(4-(3,4-dichlorophenyl)-5-(propylthio)thiazol-2-yl)-3-methyl-4-(2-(methylsulfonamido)benzyl)-1H-pyrazole-5-carboxylic Acid]", "EC50": "25 to 50"},
      {"smiles": "CCCSc1sc(-n2nc(C)c(Cc3ccccc3NS(C)(=O)=O)c2C(=O)N2CCC(CN)CC2)nc1-c1ccc(Cl)c(Cl)c1", "note": "[Compound 14, N-(2-((5-(4-(aminomethyl)piperidine-1-carbonyl)-1-(4-(3,4-dichlorophenyl)-5-(propylthio)thiazol-2-yl)-3-methyl-1H-pyrazol-4-yl)methyl)phenyl)methanesulfonamide]", "EC50": "10 to 25"},
      {"smiles": "Cc1nn(-c2nc(-c3ccc(Cl)c(Cl)c3)c(SC(C)C)s2)c(C(=O)O)c1Br", "note": "[Compound 15, 4-bromo-1-(4-(3,4-dichlorophenyl)-5-(isopropylthio)thiazol-2-yl)-3-methyl-1H-pyrazole-5-carboxylic Acid]", "EC50": "10 to 25"},
      {"smiles": "Cc1cc(C(=O)O)n(-c2nc(-c3ccc(Cl)c(Cl)c3)c(SC(C)C)s2)n1", "note": "[Compound 16, 1-(4-(3,4-dichlorophenyl)-5-(isopropylthio)thiazol-2-yl)-3-methyl-1H-pyrazole-5-carboxylic Acid]", "EC50": "50 to 100"},
      {"smiles": "Cc1nn(-c2nc(-c3ccc(Cl)c(Cl)c3)c(SC(C)C)s2)c(C(=O)O)c1-c1ccc2nccn2c1", "note": "[Compound 17, 1-(4-(3,4-dichlorophenyl)-5-(isopropylthio)thiazol-2-yl)-4-(imidazo[1,2-a]pyridin-6-yl)-3-methyl-1H-pyrazole-5-carboxylic Acid]", "EC50": "10 to 25"},
      {"smiles": "Cc1nn(-c2nc(-c3ccc(Cl)c(Cl)c3)c(SC(C)C)s2)c(C(=O)O)c1-c1ccccc1", "note": "[Compound 18, 1-(4-(3,4-dichlorophenyl)-5-(isopropylthio)thiazol-2-yl)-3-methyl-4-phenyl-1H-pyrazole-5-carboxylic Acid]", "EC50": "1 to 5"},
      {"smiles": "Cc1nn(-c2nc(-c3ccc(Cl)c(Cl)c3)c(SC3CCCCC3)s2)c(C(=O)O)c1Cc1ccccc1[N+](=O)[O-]", "note": "[Compound 19, 1-(5-(cyclohexylthio)-4-(3,4-dichlorophenyl)thiazol-2-yl)-3-methyl-4-(2-nitrobenzyl)-1H-pyrazole-5-carboxylic Acid]", "EC50": "10 to 25"},
      {"smiles": "Cc1nn(-c2nc(-c3ccc(Cl)c(Cl)c3)c(SC(C)C)s2)c(C(=O)O)c1-c1cc2ccccc2o1", "note": "[Compound 20, 4-(benzofuran-2-yl)-1-(4-(3,4-dichlorophenyl)-5-(isopropylthio)thiazol-2-yl)-3-methyl-1H-pyrazole-5-carboxylic Acid]", "EC50": "5 to 10"},
      {"smiles": "Cc1nn(-c2nc(-c3ccc(Cl)c(Cl)c3)c(SC(C)C)s2)c(C(=O)O)c1-c1ccnc(F)c1", "note": "[Compound 21, 1-(4-(3,4-dichlorophenyl)-5-(isopropylthio)thiazol-2-yl)-4-(2-fluoropyridin-4-yl)-3-methyl-1H-pyrazole-5-carboxylic acid]", "EC50": "5 to 10"},
      {"smiles": "Cc1cc(-c2c(C)nn(-c3nc(-c4ccc(Cl)c(Cl)c4)c(SC(C)C)s3)c2C(=O)O)cc(C)n1", "note": "[Compound 23, 1-(4-(3,4-dichlorophenyl)-5-(isopropylthio)thiazol-2-yl)-4-(2,6-dimethylpyridin-4-yl)-3-methyl-1H-pyrazole-5-carboxylic Acid]", "EC50": "< 1"},
      {"smiles": "Cc1nn(-c2nc(-c3ccc(Cl)c(Cl)c3)c(SC(C)C)s2)c(C(=O)O)c1-c1cc(F)cc(F)c1", "note": "[Compound 24, 1-(4-(3,4-dichlorophenyl)-5-(isopropylthio)thiazol-2-yl)-4-(3,5-difluorophenyl)-3-methyl-1H-pyrazole-5-carboxylic Acid]", "EC50": "1 to 5"},
      {"smiles": "Cc1nn(-c2nc(-c3cc(Cl)ccc3F)c(SC(C)C)s2)c(C(=O)O)c1-c1cc(Cl)cc(Cl)c1", "note": "[Compound 25, 1-(4-(5-chloro-2-fluorophenyl)-5-(isopropylthio)thiazol-2-yl)-4-(3,5-dichlorophenyl)-3-methyl-1H-pyrazole-5-carboxylic Acid]", "EC50": "1 to 5"},
      {"smiles": "Cc1cc(-c2c(C)nn(-c3nc(-c4cc(Cl)ccc4F)c(SC(C)C)s3)c2C(=O)O)cc(C)n1", "note": "[Compound 26, 1-(4-(5-chloro-2-fluorophenyl)-5-(isopropylthio)thiazol-2-yl)-4-(2,6-dimethylpyridin-4-yl)-3-methyl-1H-pyrazole-5-carboxylic Acid]", "EC50": "5 to 10"},
      {"smiles": "Cc1noc(C)c1-c1nc(-n2nc(C)c(-c3cc(Cl)cc(Cl)c3)c2C(=O)O)sc1SC(C)C", "note": "[Compound 27, 4-(3,5-dichlorophenyl)-1-(4-(3,5-dimethylisoxazol-4-yl)-5-(isopropylthio)thiazol-2-yl)-3-methyl-1H-pyrazole-5-carboxylic Acid]", "EC50": "> 25"},
      {"smiles": "Cc1nn(-c2nc(-c3cnn(C)c3)c(SC(C)C)s2)c(C(=O)O)c1-c1cc(Cl)cc(Cl)c1", "note": "[Compound 28, 4-(3,5-dichlorophenyl)-1-(5-(isopropylthio)-4-(1-methyl-1H-pyrazol-4-yl)thiazol-2-yl)-3-methyl-1H-pyrazole-5-carboxylic Acid]", "EC50": "> 25"},
      {"smiles": "Cc1nn(-c2nc(-c3ccncc3)c(SC(C)C)s2)c(C(=O)O)c1-c1cc(Cl)cc(Cl)c1", "note": "[Compound 29, 4-(3,5-dichlorophenyl)-1-(5-(isopropylthio)-4-(pyridin-4-yl)thiazol-2-yl)-3-methyl-1H-pyrazole-5-carboxylic acid]", "EC50": "> 25"},
      {"smiles": "Cc1nn(-c2nc(-c3cccnc3)c(SC(C)C)s2)c(C(=O)O)c1-c1cc(Cl)cc(Cl)c1", "note": "[Compound 30, 4-(3,5-dichlorophenyl)-1-(5-(isopropylthio)-4-(pyridin-3-yl)thiazol-2-yl)-3-methyl-1H-pyrazole-5-carboxylic acid]", "EC50": "> 25"}
    ]}
  ]
}
